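Cells were grown in 96-well plates and exposed to each compound for 48 hours at five concentrations; endpoints were interpolated linearly between bracketing concentrations, or set to the highest concentration if not reached. Here, GI50 denotes the concentration required for 50% inhibition of growth.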 Active and inactive are the calls of the source. Cut-off read from the data, not from the text of the source: active = GI50 up to about 1.1 µM and inactive = higher.
Key:
Experiment in all cases: inhibition of tumour cell growth, NCI panel, 48 h
HOP-92 = test system: HOP-92
ACHN = test system: ACHN
SF-295 = test system: SF-295
MCF7 = test system: MCF7
A498 = test system: A498
786-0 = test system: 786-0
SK-MEL-5 = test system: SK-MEL-5
SW-620 = test system: SW-620
UO-31 = test system: UO-31
TK-10 = test system: TK-10
SN12C = test system: SN12C
UACC-62 = test system: UACC-62
HCC 2998 = test system: HCC 2998
OVCAR-4 = test system: OVCAR-4
U-251 = test system: U-251
RPMI-8226 = test system: RPMI-8226
NCI-H460 = test system: NCI-H460
CCRF-CEM = test system: CCRF-CEM
OVCAR-3 = test system: OVCAR-3
SR = test system: SR

Measured: GI50

Cc1[nH]nc(C(=O)N/N=C/c2cccs2)c1/N=N\N(C)C
inactive: HOP-92 16.3 µM | ACHN 2.96 µM | SF-295 15.2 µM | MCF7 3.94 µM | A498 23.4 µM | 786-0 13.6 µM | SK-MEL-5 19.6 µM | SW-620 15.3 µM | UO-31 2.49 µM | TK-10 23.5 µM | SN12C 22 µM | UACC-62 14 µM | HCC 2998 5.06 µM | OVCAR-4 10.5 µM | U-251 10.3 µM | RPMI-8226 18.3 µM | NCI-H460 3.43 µM | CCRF-CEM 2.52 µM | OVCAR-3 22.4 µM

O=c1[nH]nc(Cc2ccccc2)n1Nc1ccccc1
inactive: ACHN > 100 µM | SF-295 > 100 µM | MCF7 > 100 µM | A498 > 100 µM | 786-0 > 100 µM | SK-MEL-5 > 100 µM | SR > 100 µM | SW-620 > 100 µM | UO-31 > 100 µM | TK-10 > 100 µM | SN12C > 100 µM | UACC-62 > 100 µM | HCC 2998 > 100 µM | OVCAR-4 > 100 µM | U-251 > 100 µM | RPMI-8226 > 100 µM | NCI-H460 > 100 µM | CCRF-CEM > 100 µM | OVCAR-3 > 100 µM

CO/N=C1\CCC2(O)C3Cc4ccc(O)c5c4C2(CCN3CC2CC2)[C@H]1O5 (stereo not given in full)
inactive: HOP-92 > 100 µM | ACHN > 100 µM | SF-295 > 100 µM | MCF7 > 100 µM | A498 > 100 µM | 786-0 > 100 µM | SK-MEL-5 > 100 µM | SR > 100 µM | SW-620 > 100 µM | UO-31 > 100 µM | TK-10 > 100 µM | SN12C > 100 µM | UACC-62 > 100 µM | OVCAR-4 > 100 µM | U-251 > 100 µM | RPMI-8226 > 100 µM | CCRF-CEM > 100 µM | OVCAR-3 > 100 µM

Clc1ccc(Cl)c(NNc2cc(Cl)ccc2Cl)c1
inactive: ACHN 2.84 µM | SF-295 > 10 µM | MCF7 7.74 µM | A498 > 10 µM | 786-0 > 10 µM | SK-MEL-5 2.76 µM | SR 8.81 µM | SW-620 > 10 µM | TK-10 4.76 µM | SN12C 4.07 µM | UACC-62 3.88 µM | HCC 2998 7.03 µM | OVCAR-4 4.95 µM | U-251 7.59 µM | RPMI-8226 4.3 µM | NCI-H460 3.66 µM | CCRF-CEM 3.63 µM | OVCAR-3 3.08 µM

CCOC(=O)[C@@]1(C)CC(O)C(=O)N1C (stereo not given in full)
inactive: HOP-92 > 100 µM | ACHN > 100 µM | SF-295 > 100 µM | MCF7 > 100 µM | 786-0 > 100 µM | SK-MEL-5 > 100 µM | SR > 100 µM | SW-620 > 100 µM | UO-31 > 100 µM | TK-10 > 100 µM | SN12C > 100 µM | UACC-62 > 100 µM | HCC 2998 > 100 µM | OVCAR-4 > 100 µM | U-251 > 100 µM | RPMI-8226 > 100 µM | CCRF-CEM > 100 µM | OVCAR-3 > 100 µM

O=C1c2cc([N+](=O)[O-])cnc2S(=O)(=O)N1c1ccc(Oc2ccccc2)cc1
inactive: HOP-92 > 100 µM | ACHN > 100 µM | SF-295 > 100 µM | MCF7 > 100 µM | 786-0 > 100 µM | SR 57 µM | SW-620 > 100 µM | UO-31 > 100 µM | TK-10 > 100 µM | SN12C > 100 µM | UACC-62 > 100 µM | HCC 2998 > 100 µM | OVCAR-4 > 100 µM | U-251 > 100 µM | RPMI-8226 > 100 µM | NCI-H460 > 100 µM | CCRF-CEM 39 µM | OVCAR-3 > 100 µM

Cc1ccc(-n2cnc(C(=N)C#N)c2N)cc1
inactive: ACHN > 100 µM | SF-295 > 100 µM | MCF7 > 100 µM | A498 > 100 µM | 786-0 > 100 µM | SK-MEL-5 > 100 µM | SR > 100 µM | SW-620 > 100 µM | UO-31 > 100 µM | TK-10 > 100 µM | SN12C > 100 µM | UACC-62 > 100 µM | HCC 2998 > 100 µM | OVCAR-4 > 100 µM | U-251 > 100 µM | RPMI-8226 > 100 µM | NCI-H460 > 100 µM | CCRF-CEM > 100 µM | OVCAR-3 > 100 µM

O=C(OCCN=c1c2ccccc2ccc2ccccc12)c1ccccc1
inactive: HOP-92 75 µM | ACHN 97.1 µM | SF-295 > 100 µM | MCF7 > 100 µM | 786-0 87.7 µM | SK-MEL-5 45 µM | SR > 100 µM | SW-620 74 µM | UO-31 56 µM | TK-10 > 100 µM | SN12C 64.1 µM | UACC-62 75 µM | HCC 2998 72.8 µM | OVCAR-4 42.3 µM | U-251 56.4 µM | RPMI-8226 > 100 µM | NCI-H460 63.2 µM | CCRF-CEM 40.8 µM | OVCAR-3 > 100 µM

CC(=O)OCC1OC(c2c(OC(C)=O)cc(C)c3c(=O)cc(/C(C(C)=O)=C(\C)O)oc23)C(OC(C)=O)C(OC(C)=O)C1OC(C)=O (stereo not given)
inactive: HOP-92 > 100 µM | ACHN > 100 µM | SF-295 > 100 µM | MCF7 > 100 µM | 786-0 > 100 µM | SK-MEL-5 > 100 µM | SR > 100 µM | SW-620 > 100 µM | UO-31 > 100 µM | TK-10 > 100 µM | SN12C > 100 µM | UACC-62 > 100 µM | HCC 2998 > 100 µM | OVCAR-4 > 100 µM | U-251 > 100 µM | RPMI-8226 > 100 µM | NCI-H460 > 100 µM | CCRF-CEM > 100 µM | OVCAR-3 > 100 µM

O=c1[nH]nc(Nc2ccccc2)c2nnn(C3CCCCC3)c12
inactive: HOP-92 > 100 µM | ACHN > 100 µM | SF-295 > 100 µM | MCF7 > 100 µM | 786-0 > 100 µM | SK-MEL-5 > 100 µM | SR > 100 µM | UO-31 > 100 µM | TK-10 > 100 µM | SN12C > 100 µM | HCC 2998 > 100 µM | OVCAR-4 > 100 µM | U-251 > 100 µM | RPMI-8226 > 100 µM | NCI-H460 > 100 µM | CCRF-CEM > 100 µM | OVCAR-3 > 100 µM

O=C(O)CCC/N=C(\C(=N\CCCC(=O)O)c1ccccc1)c1ccccc1
inactive: ACHN > 100 µM | SF-295 > 100 µM | MCF7 > 100 µM | A498 > 100 µM | 786-0 > 100 µM | SR > 100 µM | SW-620 > 100 µM | UO-31 > 100 µM | TK-10 > 100 µM | SN12C > 100 µM | UACC-62 > 100 µM | HCC 2998 > 100 µM | OVCAR-4 > 100 µM | U-251 > 100 µM | RPMI-8226 > 100 µM | NCI-H460 > 100 µM | OVCAR-3 > 100 µM

S=C1CC(c2ccccc2)Sc2ccccc2N1 (stereo not given)
inactive: ACHN 69 µM | SF-295 > 100 µM | MCF7 44.4 µM | 786-0 > 10 µM | SK-MEL-5 66.8 µM | SR > 100 µM | UO-31 > 100 µM | TK-10 49.3 µM | SN12C 97.7 µM | UACC-62 51.1 µM | OVCAR-4 49.2 µM | U-251 44.2 µM | RPMI-8226 > 100 µM | NCI-H460 63.1 µM | CCRF-CEM > 100 µM | OVCAR-3 45.5 µM

CC1(C)CN=C(Nc2cccc(C(F)(F)F)c2)S1
inactive: HOP-92 > 100 µM | ACHN > 100 µM | SF-295 > 100 µM | MCF7 > 100 µM | 786-0 > 100 µM | SK-MEL-5 > 100 µM | SR 40.2 µM | SW-620 > 100 µM | UO-31 > 100 µM | TK-10 > 100 µM | SN12C > 100 µM | UACC-62 > 100 µM | HCC 2998 > 100 µM | OVCAR-4 > 100 µM | U-251 > 100 µM | RPMI-8226 > 100 µM | CCRF-CEM > 100 µM | OVCAR-3 > 100 µM

COC(=O)C1(Cc2ccc3c(c2)CCC3)Cc2ccccc2C1O (stereo not given)
inactive: ACHN 18.3 µM | SF-295 17.5 µM | MCF7 24.3 µM | A498 18.2 µM | 786-0 16.3 µM | SK-MEL-5 16.3 µM | SR 26.4 µM | SW-620 17.3 µM | UO-31 15.7 µM | TK-10 22.1 µM | SN12C 15.2 µM | UACC-62 14.5 µM | HCC 2998 15.3 µM | OVCAR-4 13.9 µM | U-251 16.8 µM | RPMI-8226 24.5 µM | NCI-H460 18.6 µM | CCRF-CEM 13.1 µM | OVCAR-3 20.5 µM

CN(C)CCOc1ccc2[nH]c(C(=O)N3CC(CCl)c4c3cc([N+](=O)[O-])c3ccccc43)cc2c1 (stereo not given)
inactive: ACHN 1.95 µM | SF-295 2.51 µM | MCF7 1.76 µM | A498 2.94 µM | 786-0 2.1 µM | SK-MEL-5 1.7 µM | SR 1.72 µM | SW-620 2.17 µM | UO-31 15.1 µM | TK-10 1.94 µM | UACC-62 2.21 µM | U-251 2.06 µM | RPMI-8226 2.67 µM | NCI-H460 1.77 µM | CCRF-CEM 1.58 µM | OVCAR-3 1.87 µM

From ChEMBL document CHEMBL1201862, “PubChem BioAssay data set” (2004)
